Here are results for 1 compound from patent US20230025316A1, “OLAPARIB PHARMACEUTICAL COMPOSITION, FORMULATION THEREOF, PREPARATION METHOD THEREOF AND USE THEREOF” (Sinotherapeutics Inc., priority 2020, published 2023).

A short description of data set [1]: Apparent solubility in pH 6.8 phosphate buffer (shaker, HPLC). In kind it is physicochemical. The procedure: 3. Apparent solubility: excess amount of Olaparib pharmaceutical composition was weighed into a container, about ⅔ of the volume of the container with pH 6.8 phosphate buffer was added, and the container was placed in a shaker at 37° C. for 2 h. After filtering the contents of the container with a 0.45 μm filter membrane, the filtrate was collected, diluted with an appropriate amount of acetonitrile, mixed by vortex, and the concentration of Olaparib was determined by HPLC analysis.

Data set [2] can be described thus: Dissolution, USP Method 1 (Basket Method), pH 6.8 phosphate buffer. In kind it is physicochemical. The note with it: 900 mL, 100 rpm, 37.5° C., 150 mg Olaparib/cup. The method, then:
5. Dissolution sample analysis: the same as the HPLC analysis method described in the above-mentioned apparent solubility assay.
The main absorption site of drugs in the human body is the small intestine, and the pH value in the small intestine is about 6.8. According to the method described above, the dissolution of each Olaparib-cyclodextrin pharmaceutical composition in pH 6.8 phosphate buffer was determined, and the results were shown in Table 1-4.

With `O=C(c1cc(Cc2n[nH]c(=O)c3ccccc23)ccc1F)N1CCN(C(=O)C2CC2)CC1` [API, 4-[(3-{[4(cyclopropylcarbonyl)piperazin-1-yl]carbonyl}-4-fluorophenyl)methyl]phthalazin-1(2H)-one], the solubility (commonly the concentration that dissolves in the medium under given conditions) at 2 h in data set [1] (aqueous buffer, thermodynamic from solid, pH 6.8 phosphate buffer, 37° C., 2 h) is less than 100 µg/mL. For the same compound, in data set [1] (pH 6.8 buffer, apparent solubility relative to API), the “Solubility ratio (Composition/API)” value was found to be 1. The “Cumulative dissolution in pH 6.8 phosphate buffer” value in data set [2] (15 min) is 12.2%; in data set [2] (30 min), 21.4%; in data set [2] (45 min), 30.2%; in data set [2] (60 min), 37.5%; in data set [2] (90 min), 39.8%.
